Test results published in US20250092065A1, “2-(INDAZOL-5-YL)-6-(PIPERIDIN-4-YL)-1,7-NAPHTHYRIDINE DERIVATIVES AND RELATED COMPOUNDS AS MODULATORS FOR SPLICING NUCLEIC ACIDS AND FOR THE TREATMENT OF PROLIFERATIVE DISEASES” (REMIX THERAPEUTICS INC., priority 2022, published 2025).
Structures can show the parent of a compound that is named as a salt.

How the values were obtained:
HTT = assay: HiBiT protein abundance assay, HTT (K562 HiBiT knock-in); assay type: cell-based, human; conditions: HiBiT knock-in K562 cells, 24 hours, top dose 10 μM
In short: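 Steps: seed HiBiT knock-in K562 cells; add compound in 10-point 3-fold series from 10 μM final; incubate 24 h, 37 °C; add lytic HiBiT reagent, shake 5 min, wait 10 min; read luminescence. Normalize to parental K562 and DMSO controls, fit 4PL, take IC50.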

Target C = assay: HiBiT protein abundance assay, Target C (K562 HiBiT knock-in); assay type: cell-based, human; conditions: HiBiT knock-in K562 cells, 24 hours, top dose 10 μM
In short: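 K562 HiBiT knock-in cells (10000/well) were treated 24 h at 37° C with a 10-point 3-fold dilution series (top 10 μM final, ≤0.25% DMSO). HiBiT luminescence was read after lytic LgBiT detection. Percent response used unmodified K562 and DMSO-treated knock-in controls, and IC50 came from a four-parameter fit at 50% of untreated.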

SMILES	IC50 (HTT) [nM]	IC50 (Target C) [nM]
Cc1c(O)c(-c2ncc3nc(N4C[C@@H](C)N[C@@H](C)C4)ccc3n2)cc2cn(C)nc12 [Compound 526, 5-{6-[(3R,5S)-3,5-dimethylpiperazin-1-yl]pyrido[3,2-d]pyrimidin-2-yl}-2,7-dimethylindazol-6-ol]	100 to 1000	100 to 1000
CNC(=O)c1nc(-c2cc3cn(C)nc3c(F)c2O)nc2ccc(N3C[C@@H](C)N[C@@H](C)C3)cc12 [Compound 527, 6-[(3R,5S)-3,5-dimethylpiperazin-1-yl]-2-(7-fluoro-6-hydroxy-2-methylindazol-5-yl)-N-methylquinazoline-4-carboxamide]	< 100	100 to 1000
CNC(=O)c1nc(-c2cc3cn(C)nc3c(F)c2O)nc2ccc(N3CCC(N(C)C)CC3)cc12 [Compound 528, 6-[4-(dimethylamino)piperidin-1-yl]-2-(7-fluoro-6-hydroxy-2-methylindazol-5-yl)-N-methylquinazoline-4-carboxamide]	100 to 1000	100 to 1000
CNC(=O)c1nc(-c2cc3cn(C)nc3c(F)c2O)nc2ccc(N3CCN[C@@H](C)C3)cc12 [Compound 529, 2-(7-fluoro-6-hydroxy-2-methylindazol-5-yl)-N-methyl-6-[(3S)-3-methylpiperazin-1-yl]quinazoline-4-carboxamide]	< 100	100 to 1000
CNC(=O)c1nc(-c2cc3cn(C)nc3cc2O)nc2ccc(N3CCN[C@@H](C)C3)cc12 [Compound 530, 2-(6-hydroxy-2-methylindazol-5-yl)-N-methyl-6-[(3S)-3-methylpiperazin-1-yl]quinazoline-4-carboxamide]	100 to 1000	100 to 1000
CNC(=O)c1nc(-c2cc3cn(C)nc3cc2O)nc2ccc(N3C[C@@H](C)N[C@@H](C)C3)cc12 [Compound 531, 6-[(3R,5S)-3,5-dimethylpiperazin-1-yl]-2-(6-hydroxy-2-methylindazol-5-yl)-N-methylquinazoline-4-carboxamide]	100 to 1000	1000 to 10000
CNC(=O)c1nc(-c2cc3cn(C)nc3c(C)c2O)nc2ccc(N3CCNC4(CC4)C3)cc12 [Compound 532, 6-{4,7-diazaspiro[2.5]octan-7-yl}-2-(6-hydroxy-2,7-dimethylindazol-5-yl)-N-methylquinazoline-4-carboxamide]	100 to 1000	100 to 1000
CNC(=O)c1nc(-c2cc3cn(C)nc3c(C)c2O)nc2ccc(N3CCNCC3)nc12 [Compound 533, 2-(6-hydroxy-2,7-dimethylindazol-5-yl)-N-methyl-6-(piperazin-1-yl)pyrido[3,2-d]pyrimidine-4-carboxamide]	1000 to 10000	1000 to 10000
CNC(=O)c1nc(-c2cc3cn(C)nc3c(C)c2O)nc2ccc(N3C[C@@H](C)N[C@@H](C)C3)nc12 [Compound 534, 6-[(3R,5S)-3,5-dimethylpiperazin-1-yl]-2-(6-hydroxy-2,7-dimethylindazol-5-yl)-N-methylpyrido[3,2-d]pyrimidine-4-carboxamide]	1000 to 10000	1000 to 10000
CCNC(=O)c1nc(-c2cc3cn(C)nc3c(C)c2O)nc2ccc(N3C[C@@H](C)N[C@@H](C)C3)cc12 [Compound 535, 6-[(3R,5S)-3,5-dimethylpiperazin-1-yl]-N-ethyl-2-(6-hydroxy-2,7-dimethylindazol-5-yl)quinazoline-4-carboxamide]	< 100	100 to 1000
CNC(=O)c1nc(-c2cc3cn(C)nc3c(C)c2O)nc2ccc(N3CC[C@@H](NC)C3)cc12 [Compound 536, 2-(6-hydroxy-2,7-dimethylindazol-5-yl)-N-methyl-6-[(3R)-3-(methylamino)pyrrolidin-1-yl]quinazoline-4-carboxamide]	< 100	< 100
CNC(=O)c1nc(-c2cc3cn(C)nc3c(C)c2O)nc2ccc(N3CC[C@H](NC)C3)cc12 [Compound 537, 2-(6-hydroxy-2,7-dimethylindazol-5-yl)-N-methyl-6-[(3S)-3-(methylamino)pyrrolidin-1-yl]quinazoline-4-carboxamide]	< 100	< 100
Cc1c(O)c(-c2nc(-c3c[nH]nn3)c3cc(N4CCNCC4)ccc3n2)cc2cn(C)nc12 [Compound 538, 2,7-dimethyl-5-[6-(piperazin-1-yl)-4-(1H-1,2,3-triazol-4-yl)quinazolin-2-yl]indazol-6-ol hydrochloride]	1000 to 10000	1000 to 10000
Cc1c(O)c(-c2nc(C(=O)NC(C)C)c3cc(N4C[C@@H](C)N[C@@H](C)C4)ccc3n2)cc2cn(C)nc12 [Compound 539, 6-[(3R,5S)-3,5-dimethylpiperazin-1-yl]-2-(6-hydroxy-2,7-dimethylindazol-5-yl)-N-isopropylquinazoline-4-carboxamide]	< 100	< 100
Cc1c(O)c(-c2nc(C(=O)NC3CCC3)c3cc(N4C[C@@H](C)N[C@@H](C)C4)ccc3n2)cc2cn(C)nc12 [Compound 540]	100 to 1000	100 to 1000
Cc1c(O)c(-c2nc(-c3nn[nH]n3)c3cc(N4CCNCC4)ccc3n2)cc2cn(C)nc12 [Compound 541, 2,7-dimethyl-5-[6-(piperazin-1-yl)-4-(2H-1,2,3,4-tetrazol-5-yl)quinazolin-2-yl]indazol-6-ol]	> 10000	> 10000
C[C@@H]1CN(c2ccc3nc(-c4cc5cn(C)nc5c(F)c4O)nc(C4CC4)c3c2)C[C@H](C)N1 [Compound 542, 5-{4-cyclopropyl-6-[(3R,5S)-3,5-dimethylpiperazin-1-yl]quinazolin-2-yl}-7-fluoro-2-methylindazol-6-ol]	1000 to 10000	100 to 1000
CN[C@@H]1CCN(c2ccc3nc(-c4cc5cn(C)nc5c(F)c4O)nc(C4CC4)c3c2)C1 [Compound 543, 5-{4-cyclopropyl-6-[(3R)-3-(methylamino)pyrrolidin-1-yl]quinazolin-2-yl}-7-fluoro-2-methylindazol-6-ol]	< 100	100 to 1000
Cc1cn2cc(-c3ccc4cc(N5C[C@@H](C)N[C@@H](C)C5)cc(F)c4n3)cc(F)c2n1 [Compound 544, 6-[(3R,5S)-3,5-dimethylpiperazin-1-yl]-8-fluoro-2-{8-fluoro-2-methylimidazo[1,2-a]pyridin-6-yl}quinoline]	100 to 1000	100 to 1000
CNC(=O)c1nc(-c2cc3cn(C)nc3c(C)c2O)nc2ccc(N3C[C@H](C)N[C@@H](C)C3)cc12 [Compound 652, 6-[(3S,5S)-3,5-dimethylpiperazin-1-yl]-2-(6-hydroxy-2,7-dimethylindazol-5-yl)-N-methylquinazoline-4-carboxamide]	< 100	100 to 1000
Cc1c(O)c(-c2ncc3cc(N4C[C@H](C)N[C@@H](C)C4)ccc3n2)cc2cn(C)nc12 [Compound 660, 5-{6-[(3S,5S)-3,5-dimethylpiperazin-1-yl]quinazolin-2-yl}-2,7-dimethylindazol-6-ol]	100 to 1000	100 to 1000
CNC(=O)c1nc(-c2cc3cn(C)nc3c(C)c2O)nc2ccc(N3CCC(N4CCC4)CC3)cc12 [Compound 706]	100 to 1000	100 to 1000
C[C@@H]1CN(c2ccc3nc(-c4cc5cn(C)nc5c(F)c4O)nc(C#N)c3c2)C[C@H](C)N1 [Compound 707, 6-[(3R,5S)-3,5-dimethylpiperazin-1-yl]-2-(7-fluoro-6-hydroxy-2-methylindazol-5-yl) quinazoline-4-carbonitrile]	100 to 1000	100 to 1000
